Test results reported in PubChem BioAssay AID1926 (The Scripps Research Institute Molecular Screening Center, 2009).
Calls of active or inactive are those of the source.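 How the source made its calls: active means IC50 half-maximal inhibitory concentration at or below 10 µM; inactive means IC50 above 10 µM.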

molecular target: VIM-2 metallo-beta-lactamase (Pseudomonas aeruginosa) (UniProt Q932Y6); assay: VIM-2 inhibitor FRET-based artefact check, dose response, artefact control for selective VIM-2 inhibitor project, biochemical, FRET readout, CCF2 substrate (AID 1926); conditions: purified VIM-2, CCF2 FRET substrate hydrolysis

| Structure (SMILES) | IC50 |
| --- | --- |
| Cc1nn(CCc2n[nH]c(=S)n2-c2cccc(Cl)c2)c(C)c1[N+](=O)[O-] | 4.31 µM |
| O=P(O)(O)c1ccccc1OCc1ccccc1 | 0.689 µM |
| S=c1[nH]nc(-c2cccs2)n1Cc1ccccc1 | 0.889 µM |
| CCCCn1c(-c2nn(C)cc2Cl)n[nH]c1=S | 1.62 µM |
| NC(=O)SCC(=O)Nc1ccccc1C(=O)O | 5.27 µM |
| O=C(O)c1[nH]c2ccc(Br)cc2c1CCN1C(=O)c2cccc([N+](=O)[O-])c2C1=O | 0.716 µM |
| CCCCc1cc(=O)oc2c3c(cc(OCC(=O)N4CCC[C@H]4C(=O)O)c12)OC(C)(C)CC3 | 8.93 µM |
| O=C(CSc1nnc(NC(=O)C2CC2)s1)NCc1ccccc1Cl | 4.62 µM |
| COc1ccc(-c2cc(C(F)(F)F)nc(N3CCN(C)CC3)n2)cc1 | > 59.6 µM (inactive) |
| CC(C)(C)c1ccc(COc2ccsc2C(=O)O)cc1 | 5.71 µM |
| S=c1[nH]nc(Cn2c(-c3ccccn3)nc3ccccc32)n1-c1ccc2c(c1)OCCO2 | 4.03 µM |
| O=C(CSc1nnc(NC(=O)C2CCCCC2)s1)NCc1ccco1 | 2.23 µM |
| Cc1ccc(-c2c(C(=O)O)c(C(=O)O)c3n2CSC3)cc1 | 2.95 µM |
| C=C(C)Cn1c(-c2cccs2)n[nH]c1=S | 1.39 µM |
| CCCC(=O)Nc1nnc(SCC(=O)NCc2cccs2)s1 | 4.68 µM |
| Cc1ccc(S(=O)(=O)n2[nH]c(=O)cc2NC(=O)c2cccs2)cc1 | 0.12 µM |
| COc1cccc(-n2c(CNC(=O)OC(C)(C)C)n[nH]c2=S)c1 | 7.83 µM |
| O=C(CSc1nnc(NC(=O)c2ccccc2)s1)NCc1ccco1 | 4.63 µM |
| Cc1ccc(-n2c(-c3nn(C)c(C)c3Cl)n[nH]c2=S)cc1 | 3.72 µM |
| CC1CCCCC1n1c(-c2cccnc2)n[nH]c1=S (centres undefined) | 4.05 µM |
| Fc1ccccc1-c1n[nH]c(=S)n1Cc1ccccc1 | 4.14 µM |
| COc1ccccc1-n1c(-c2ccco2)n[nH]c1=S | 5.21 µM |
| CCCCn1c(-c2nn(C)c(C)c2Cl)n[nH]c1=S | 1.99 µM |
| CC(C)(C)c1ccc(-c2n[nH]c(=S)n2CCCN2CCOCC2)cc1 | 6.73 µM |
| Cc1cc(C(=O)OCC(=O)NC(=O)c2cccn2C)c2ccccc2n1 | 2.3 µM |
| O=C(O)CC/C(=C\c1cc([N+](=O)[O-])ccc1Cl)c1nc2ccccc2s1 | 4.17 µM |

| Structure (SMILES) | IC50 |
| --- | --- |
| Cn1c(-c2sccc2OCc2ccc(Cl)cc2Cl)n[nH]c1=S | 0.774 µM |
| COc1ccccc1C(=O)Nc1nnc(SCC(=O)NCc2ccco2)s1 | 2.61 µM |
| CCCCn1c(-c2ccoc2C)n[nH]c1=S | 4.25 µM |
| Cc1c(C)c2c(OCC(=O)N[C@@H](C)C(=O)O)cc3c(c2oc1=O)CCC(C)(C)O3 | 1.54 µM |
| CC(C)(C)CC(=O)Nc1nnc(SCC(=O)NCc2cccs2)s1 | 6.64 µM |
| CCCCn1c(-c2sccc2C)n[nH]c1=S | 0.961 µM |
| COc1ccc2[nH]c(C(=O)O)c(CCN3C(=O)c4ccc(C(=O)O)cc4C3=O)c2c1 | 0.433 µM |
| S=c1[nH]nc(-c2cccs2)n1C1CCCCC1 | 1.31 µM |
| S=c1[nH]nc(-c2ccccc2)n1Cc1ccccc1 | 8.3 µM |
| O=C(CSc1nnc(NC(=O)c2cccc(F)c2)s1)NCc1ccco1 | 4.55 µM |
| COc1ccccc1-c1n[nH]c(=S)n1Cc1ccco1 | 6.53 µM |
| CC(C)(C)C(=O)Nc1nnc(CSCc2ccccc2F)s1 | 1.96 µM |
| C=CCn1c(C2CC2)n[nH]c1=S | 8.36 µM |
| O=C(O)c1ccccc1C(=O)c1cccc2ccccc12 | 3.82 µM |
| S=c1[nH]nc(C2CC2)n1Cc1ccco1 | 3.76 µM |
| CCOC(=O)N=S(N)(=O)c1ccccc1 (centres undefined) | 4.85 µM |
| S=c1[nH]nc(-c2ccco2)n1Cc1ccccc1 | 3.51 µM |
| Cc1cccc(C(=O)Nc2nnc(SCC(=O)NCc3ccco3)s2)c1 | inactive |
| Cc1cc(OCc2cc(C(=O)O)oc2C)c2c3c(c(=O)oc2c1)CCCC3 | 0.582 µM |
| Cc1n[nH]c(C)c1CCCCOc1ccc([N+](=O)[O-])cc1 | 5.26 µM |
| S=c1[nH]nc(-c2ccc3ccccc3n2)n1-c1ccc2c(c1)OCCO2 | 7.92 µM |
| Cc1cccc(-n2c(C)n[nH]c2=S)c1C | 8.27 µM |
| CCCc1cc(=O)oc2c3c(cc(OCC(=O)N[C@@H](C)C(=O)O)c12)OC(C)(C)CC3 | 6.97 µM |
| O=Cc1c(NCc2ccc(Cl)cc2)c2ccccc2[nH]c1=O | 9.8 µM |
| CC(C)(C)C(=O)Nc1nnc(SCC(=O)NCc2cccs2)s1 | 0.874 µM |
| COc1ccc(-c2n[nH]c(=S)n2-c2ccc3c(c2)OCCO3)cc1OC | 2.62 µM |

| Structure (SMILES) | IC50 |
| --- | --- |
| Cc1cccc(C2c3[nH]c4ccccc4c3CCN2C(=O)c2cc(CC(C)C)[nH]c(=O)n2)n1 (centres undefined) | 2.74 µM |
| O=P(O)(O)c1ccccc1OCCCCCOc1ccccc1P(=O)(O)O | 0.862 µM |
| CCCn1c(C(C)C)n[nH]c1=S | 3.48 µM |
| O=C(CSc1nnc(NC(=O)c2cc(Br)ccc2Cl)s1)NCC1CCCO1 (centres undefined) | 5.87 µM |
| Cn1ccnc1SCC(=O)Nc1ccc2nc(SCC(=O)NC3CC3)sc2c1 | 9 µM |
| Cc1c(OCC(=O)N2CCC[C@@H]2C(=O)O)ccc2c3c(c(=O)oc12)CCC3 | 5.43 µM |
| CCCc1cc(=O)oc2c3c(cc(OCC(=O)N4CCC[C@H]4C(=O)O)c12)OC(C)(C)CC3 | 1.73 µM |
| COCC(C)NC(=O)c1cc2cccc([N+](=O)[O-])c2[nH]1 (centres undefined) | 6.15 µM |
| CCN(CC)C(=O)CSc1nc2ccc(NC(=O)CSc3nccn3C)cc2s1 | 3.61 µM |
| O=C1Nc2cc(C(=O)NCCCN3CCOCC3)ccc2S/C1=C/c1ccccc1F | inactive |
| Cc1c(C)c2ccc(OCC(=O)N3CCC[C@@H]3C(=O)O)c(C)c2oc1=O | 2.09 µM |
| O=C(CSc1nnc(NC(=O)c2c(F)cccc2F)s1)NCc1ccccc1 | 3.62 µM |
| O=C(O)c1ccccc1Sc1ncnc2sc3c(c12)CCC3 | 3.91 µM |
| Cc1c(C)c2c(OCC(=O)N3CCC[C@H]3C(=O)O)cc3c(c2oc1=O)CCC(C)(C)O3 | 0.525 µM |
| COCC(=O)Nc1nnc(SCC(=O)NCc2cccs2)s1 | 3.62 µM |
| O=C(O)C1Sc2[nH]c(=O)sc2C2c3cc(Cl)ccc3OC(=O)C12 (centres undefined) | > 59.6 µM (inactive) |
| CC(C)Cn1c(-c2ccco2)n[nH]c1=S | 4.37 µM |
| C=C(c1cccc2ccccc12)P(=O)(O)O | 2.17 µM |
| Cc1cc(OCC(=O)N2CCC[C@@H]2C(=O)O)c2c(C)c(C)c(=O)oc2c1 | 5.31 µM |
| O=C(O)c1c(C(=O)O)c(-c2ccc(Br)cc2)n2c1CSC2 | 1.51 µM |
| CSc1nc(SCC(=O)O)c2c3c(sc2n1)COC(C)(C)C3 | 5.35 µM |
| O=c1[nH]c(SCc2n[nH]c(=S)n2-c2ccccc2)nc2sc3c(c12)CCC3 | 4.2 µM |
| CC1=C(C(=O)O)N2C(=O)C(NC(=O)c3nn(C)cc3[N+](=O)[O-])C2SC1 (centres undefined) | 8.54 µM |
| CCOC(=O)c1[nH]c(C(=O)O)c(CCC(=O)OC)c1C | 5 µM |
| O=C(CSc1nnc(NC(=O)c2ccccc2F)s1)NCc1ccc(F)cc1 | 3.65 µM |
| COc1cc2c(cc1OC)C(C)N(C(=O)c1nccnc1C(=O)O)CC2 (centres undefined) | 5.74 µM |

| Structure (SMILES) | IC50 |
| --- | --- |
| Cc1c(Cl)c(-c2n[nH]c(=S)n2-c2ccc(F)cc2)nn1C | 6.25 µM |
| Cn1c(-c2sccc2OCc2ccccc2)n[nH]c1=S | 1.2 µM |
| O=c1[nH]c2c(s1)C(c1cccnc1)C1C3CCC(C3)C1S2 (centres undefined) | 0.0339 µM |
| O=C(c1ccco1)N1N=C(c2ccc(Cl)cc2)CC1c1ccco1 (centres undefined) | 1.61 µM |
| Cc1cc(=O)oc2c3c(cc(OCC(=O)N4CCC[C@H]4C(=O)O)c12)OC(C)(C)CC3 | 4.93 µM |
| O=[N+]([O-])c1ccc(-c2ccccc2)c([As](=O)(O)O)c1 | 0.245 µM |
| S=c1[nH]nc(-c2ccccc2)n1C1C=CCCC1 (centres undefined) | 4.99 µM |
| Cc1ccccc1C(=O)Nc1nnc(SCC(=O)NCc2ccco2)s1 | 1.12 µM |
| S=c1[nH]nc(-c2ccccc2)n1CC1CCCO1 (centres undefined) | 4.15 µM |
| S=c1[nH]nc(C2CC2)n1Cc1ccccc1 | 0.94 µM |
| Cc1cc(C)n(-c2nc(SCC(=O)O)c3c4c(sc3n2)COC(C)(C)C4)n1 | 9.07 µM |
| CCn1c(-c2nn(-c3ccccc3)ccc2=O)n[nH]c1=S | 8.57 µM |
| O=C(O)Cn1cccc1C(=O)c1ccccc1 | 4.04 µM |
| O=C(O)C(NC(=O)c1ccccc1)=C(Cl)Cl | 7.85 µM |
| O=C(O)c1[nH]c2ccc(Cl)cc2c1CCN1C(=O)c2ccccc2C1=O | 0.374 µM |
| O=C(CSc1nnc(NC(=O)c2ccccc2[N+](=O)[O-])s1)NCc1ccco1 | 2.62 µM |
| S=c1[nH]nc(-c2ccco2)n1-c1cccc2ccccc12 | 3.97 µM |
| CCc1cc(=O)oc2c(C)c(OCC(=O)N3CCC[C@@H]3C(=O)O)ccc12 | 8.96 µM |
| O=c1c2ccccc2cnn1Cc1n[nH]c(=S)n1C1CC2CCC1C2 (centres undefined) | 9.66 µM |
| CC1CCCC(C)N1C(=O)CSc1nnc(NC(=O)c2cccs2)s1 (centres undefined) | 3.92 µM |
| CSC[C@H](NC(=O)COc1cc2c(c3oc(=O)c(C)c(C)c13)CCC(C)(C)O2)C(=O)O | 4.21 µM |
| Cc1ccc(-c2n[nH]c(=S)n2-c2ccccc2)cc1 | inactive |
| Cc1cc(=O)oc2c3c(cc(OCC(=O)N[C@@H](Cc4ccccc4)C(=O)O)c12)OC(C)(C)CC3 | 7.51 µM |
| O=C(CCN1C(=O)/C(=C/c2ccccc2F)SC1=S)NCCCn1ccnc1 | 4.49 µM |
| CC(=O)c1ccc(-c2ccc(Cn3c(C)nc4cc(N)c(C)nc43)cc2)cc1 | 6.28 µM |
| O=C1Nc2cc(C(=O)N3CCC(N4CCCCC4)CC3)ccc2S/C1=C\c1ccccc1 | 4.51 µM |
